According to patent publication US8969345B2, “Dibenzooxepin derivative” (Kyowa Hakko Kirin Co., Ltd., priority 2011, dated 2015):

Legend:
[1] = biological target: T1, GAL4-PPAR γ chimeric nuclear receptor (human PPAR γ ligand binding domain) (Homo sapiens, UniProt P37231); experiment: PPAR γ transactivation assay by transient gene transfer (GAL4-PPAR γ chimeric receptor, luciferase reporter, HEK293EBNA cells); format: cell-based; settings: concentration showing 50% of efficacy (maximum activity rate relative to pioglitazone = 100%), 24 hr
T1 construct: expressed in transfected cells; host or cells: HEK293EBNA cells, transient transfection with SuperFect
T1 sequence (P37231 174-475 isoform P37231-2): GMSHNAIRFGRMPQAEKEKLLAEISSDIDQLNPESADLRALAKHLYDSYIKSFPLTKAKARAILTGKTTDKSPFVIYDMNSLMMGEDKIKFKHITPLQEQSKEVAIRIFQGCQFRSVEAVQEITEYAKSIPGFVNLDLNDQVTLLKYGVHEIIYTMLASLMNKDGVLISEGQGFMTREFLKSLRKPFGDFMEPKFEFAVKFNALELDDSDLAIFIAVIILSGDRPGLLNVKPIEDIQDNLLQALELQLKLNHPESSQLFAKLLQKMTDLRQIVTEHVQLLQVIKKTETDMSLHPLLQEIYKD
Method: The agonist activity of the test compound to PPAR γ was determined by a transactivation assay method using a chimeric nuclear receptor of a DNA binding region of a yeast transcription factor GAL4 and a PPAR γ ligand binding region. Specifically, the PPAR γ agonist activity of the test compound was evaluated by the following method based on the method of Lehmann et al. (J Biol. Chem., 1995, vol. 270, page 12953).
HEK293EBNA cells cultured in Dulbecco's Modified Eagle medium (Invitrogen) containing 10 v/v % fetal bovine serum (Invitrogen) were used. 30 mL of the above-mentioned cells (density: 1×10^5 cells/mL) were inoculated in a […] (Iwaki Glass), and cultured overnight. Using SuperFect Transfection Reagent (QIAGEN), a plasmid expressing a GAL4-PPAR γ chimeric nuclear receptor fusing 174-475 amino acids, which are human PPAR γ ligand binding domain, and 1-147 amino acids, which are GAL4 DNA binding domain, and a reporter plasmid expressing a GAL4 responsive luciferase were transiently introduced into the cells at a proportion of 4:1. After 5 hr from transfection, the cells were detached from the culture dish, and the detached cells (density: 2×10^4 cells/mL) were inoculated by 100 μL in each well of a 96 well white plate (SUMITOMO BAKELITE), and cultured overnight. The medium was removed, the test compound diluted in various concentrations with serum-free Dulbecco's Modified Eagle medium was added by 100 μL, and the mixture was reacted under a 5% carbon dioxide gas stream (5% CO2) at 37° C. for 24 hr. On the other hand, as a positive control, 10 μmol/L of pioglitazone (100 μL) was added, and the mixture was reacted under a 5% carbon dioxide gas stream (5% CO2) at 37° C. for 24 hr. As a substrate of luciferase, 100 μL of Steady-Glo (Promega) was added to each well and the mixture was thoroughly stirred. Immediately thereafter, the chemical luminescence due to luciferase was measured using TopCount NTX (Packard).
The agonist activity (activity rate (%)) of the test compound to PPAR γ was calculated according to the following formula, as a relative activity when the agonist activity on addition of pioglitazone ([…]) was 100%.

[2] = Metabolic stability evaluation in human liver microsome; format: in vitro ADME; settings: liver microsomes, pH 7.4; human liver microsome 0.2 mg/mL protein, test compound 1 μmol/L, β-NADPH, 37° C., 30 min; average of two samples; read-out: hCLint (converted)
Method: Human liver microsome (pool of 50 donors) was purchased from XenoTech. A reaction mixture containing phosphate buffer (100 mmol/L, pH 7.4), ethylenediamine tetraacetic acid (0.1 mmol/L), magnesium chloride (6 mmol/L), human liver microsome (0.2 mg/mL protein) and test compound (1 μmol/L) was prepared. The reaction mixture was preincubated at 37° C. for 5 min, β-NADPH (1 mmol/L) was added and the mixture was incubated at 37° C. for 30 min. The protein was removed with acetonitrile from the sample after the reaction and the sample was measured by LC-MS/MS. The ratio of the organic solvent in the reaction mixture was set to about 0.5%, and the reaction was performed in 2 samples.
The elimination rate constant (ke) was calculated from the linear regression of the logarithm plot of the residual ratio of the test compound and at 30 min after the reaction, and the liver inherent clearance (Cint) was calculated by the following formula.
[formula] ke: elimination rate constant (1/h) a: concentration (mg/mL) of liver microsome in the reaction mixture b: liver microsome amount per liver unit weight (32.3 mg/g liver) c: liver weight per unit body weight (25.7 g liver/kg body weight) Each test compound was tested in two samples, and the average thereof was calculated.

| SMILES | EC50 [1] | CLint scaled at 1 μmol/L [2] |
| --- | --- | --- |
| COCc1nc2cscc2n1Cc1ccc2c(c1)COc1cc(F)ccc1/C2=C(\C)c1noc(=O)[nH]1 [Compound 13d, (E)-3-[1-(3-fluoro-8-{[2-(methoxymethyl)-1H-thieno[3,4-d]imidazol-1-yl]methyl}dibenzo[b,e]oxepin-11(6H)-ylidene)ethyl]-1,2,4-oxadiazol-5(4H)-one] | 36.7 nM | 26.7 mL/min/kg |
| CCCc1nc(C)nc(N2CCC2)c1Cc1ccc2c(c1)COc1cc(F)ccc1/C2=C(\C)c1noc(=O)[nH]1 [Compound 13g, (E)-3-[1-(8-{[4-(azetidin-1-yl)-2-methyl-6-propylpyrimidin-5-yl]methyl}-3-fluorodibenzo[b,e]oxepin-11(6H)-ylidene)ethyl]-1,2,4-oxadiazol-5(4H)-one] | 209 nM | 65 mL/min/kg |
| C/C(=C1/c2ccc(Cc3c(C4CC4)nc4c(C)nccn34)cc2COc2cc(F)ccc21)c1noc(=O)[nH]1 [Compound 14a, (E)-3-(1-{8-[(2-cyclopropyl-8-methylimidazo[1,2-a]pyrazin-3-yl)methyl]-3-fluorodibenzo[b,e]oxepin-11(6H)-ylidene}ethyl)-1,2,4-oxadiazol-5(4H)-one] | 15.9 nM | 30 mL/min/kg |
| CCCc1nc2c(C)nccn2c1Cc1ccc2c(c1)COc1cc(F)ccc1/C2=C(\C)c1noc(=O)[nH]1 [Compound 14d, (E)-3-(1-{3-fluoro-8-[(8-methyl-2-propylimidazo[1,2-a]pyrazin-3-yl)methyl]dibenzo[b,e]oxepin-11(6H)-ylidene}ethyl)-1,2,4-oxadiazol-5(4H)-one] | 7.4 nM | 61.7 mL/min/kg |
| C/C(=C1/c2ccc(Cc3c(C)nc4cc(C5CC5)ccn34)cc2COc2cc(F)ccc21)c1noc(=O)[nH]1 [Compound 14g, (E)-3-(1-{8-[(7-cyclopropyl-2-methylimidazo[1,2-a]pyridin-3-yl)methyl]-3-fluorodibenzo[b,e]oxepin-11(6H)-ylidene}ethyl)-1,2,4-oxadiazol-5(4H)-one] | 130 nM | 28.3 mL/min/kg |
| C#Cc1ccn2c(Cc3ccc4c(c3)COc3cc(F)ccc3/C4=C(\C)c3noc(=O)[nH]3)c(C)nc2c1 [Compound 14h, (E)-3-(1-{8-[(7-ethynyl-2-methylimidazo[1,2-a]pyridin-3-yl)methyl]-3-fluorodibenzo[b,e]oxepin-11(6H)-ylidene}ethyl)-1,2,4-oxadiazol-5(4H)-one] | 304 nM | 36.7 mL/min/kg |
| C/C(=C1/c2ccc(Cc3c(C#N)nc4cc(F)ccn34)cc2COc2cc(F)ccc21)c1noc(=O)[nH]1 [Compound 14i, (E)-3-(1-{8-[(2-cyano-7-fluoroimidazo[1,2-a]pyridin-3-yl)methyl]-3-fluorodibenzo[b,e]oxepin-11(6H)-ylidene}ethyl)-1,2,4-oxadiazol-5(4H)-one] | 239 nM | 127 mL/min/kg |
| C/C(=C1/c2ccc(Cc3c(C4CCOC4)nc4cc(F)ccn34)cc2COc2cc(F)ccc21)c1noc(=O)[nH]1 (stereo not shown) [Compound 14j, (E)-3-(1-{8-[(7-fluoro-2-(tetrahydrofuran-3-yl)imidazo[1,2-a]pyridin-3-yl)methyl]-3-fluorodibenzo[b,e]oxepin-11(6H)-ylidene}ethyl)-1,2,4-oxadiazol-5(4H)-one] | 83 nM | 11.3 mL/min/kg |
